Test results reported in ChEMBL document CHEMBL1201862, “PubChem BioAssay data set” (2004).
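Tested at 5 concentrations; 48 h exposure; 96-well plates; endpoints linearly interpolated, else capped at highest concentration. At the GI50, growth is halved.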 The source made the active and inactive calls. No stated cut-off is given here; in the data, active = GI50 up to about 1.1 µM and inactive = higher.

How the values were obtained:
Assay in all cases: inhibition of tumour cell growth, NCI panel, 48 h
A549 = tested on: A549
DMS-114 = tested on: DMS-114
DMS-273 = tested on: DMS-273
DU-145 = tested on: DU-145
HCT-15 = tested on: HCT-15
HL-60 = tested on: HL-60
HOP-18 = tested on: HOP-18
M19-MEL = tested on: M19-MEL
MOLT-4 = tested on: MOLT-4
NCI-H226 = tested on: NCI-H226
NCI/ADR-RES = tested on: NCI/ADR-RES
OVCAR-4 = tested on: OVCAR-4
PC-3 = tested on: PC-3
SF-539 = tested on: SF-539
SNB-78 = tested on: SNB-78
UACC-62 = tested on: UACC-62
K562 = tested on: K562
XF498 = tested on: XF498
SR = tested on: SR

Row | Structure (SMILES) | GI50 (A549) | GI50 (DMS-114) | GI50 (DMS-273) | GI50 (DU-145) | GI50 (HCT-15) [µM] | GI50 (HL-60) | GI50 (HOP-18) | GI50 (M19-MEL) | GI50 (MOLT-4) | GI50 (NCI-H226) | GI50 (NCI/ADR-RES) | GI50 (OVCAR-4) | GI50 (PC-3) | GI50 (SF-539) | GI50 (SNB-78) | GI50 (UACC-62) | GI50 (K562) | GI50 (XF498) | GI50 (SR)
1 | CN1CCN(CCCN2c3ccccc3Sc3ccc(C(F)(F)F)cc32)CC1 | 12.6 µM (inactive) | 10 µM (inactive) | 6.65 µM (inactive) | 16.4 µM (inactive) | 7.1 | 6.14 µM (inactive) | 9.89 µM (inactive) | 1.87 µM (inactive) | 4.6 µM (inactive) | 15.5 µM (inactive) | 11.6 µM (inactive) | 13.5 µM (inactive) | 4.72 µM (inactive) | 7.28 µM (inactive) | 15.7 µM (inactive) | 2.1 µM (inactive) |  |  | 
2 | CC1=NN2C(c3ccc(C)cc3)=CSC2=NC(C)(C)C1 | > 100 µM (inactive) | 71 µM (inactive) |  |  | > 100 | 76.2 µM (inactive) | > 100 µM (inactive) | > 100 µM (inactive) | > 100 µM (inactive) | > 100 µM (inactive) |  | > 100 µM (inactive) |  | > 100 µM (inactive) | > 100 µM (inactive) | > 100 µM (inactive) | 61.5 µM (inactive) | 54 µM (inactive) | 
3 | CC(=O)NNc1nc(C)c(C(=O)NNC(=O)C(=O)Nc2ccc(Cl)c([N+](=O)[O-])c2)s1 | 85.5 µM (inactive) | 46.9 µM (inactive) |  |  | 49.3 | 39 µM (inactive) |  | 67.8 µM (inactive) | 20 µM (inactive) | > 100 µM (inactive) |  | 34.4 µM (inactive) |  | 53 µM (inactive) | 45.8 µM (inactive) | 58.9 µM (inactive) | 26.2 µM (inactive) | 42.6 µM (inactive) | 35.1 µM (inactive)
4 | Nc1ccc(C(=O)N/C(=C\c2ccc3c(c2)OCO3)c2nc3ccc4c(c3[nH]2)C(=O)c2ccccc2C4=O)cc1 | 21.1 µM (inactive) | 28.2 µM (inactive) | 23.6 µM (inactive) |  | 42.2 |  |  | 38.2 µM (inactive) | 4.75 µM (inactive) |  |  | 50.5 µM (inactive) |  | 21.6 µM (inactive) | 45.9 µM (inactive) | 33.7 µM (inactive) | 25.5 µM (inactive) | 93.8 µM (inactive) | 
5 | Cc1ccc(C)c(NC(=O)C(=O)CC(=O)c2cccc3ccccc23)c1 | > 100 µM (inactive) | > 100 µM (inactive) | > 100 µM (inactive) |  | > 100 | > 100 µM (inactive) | > 100 µM (inactive) | > 100 µM (inactive) | > 100 µM (inactive) | > 100 µM (inactive) |  | > 100 µM (inactive) |  | > 100 µM (inactive) | > 100 µM (inactive) | > 100 µM (inactive) | > 100 µM (inactive) |  | > 100 µM (inactive)
6 | O=C(Nc1ccccc1)c1ccc(Cl)c([N+](=O)[O-])c1 | 20.2 µM (inactive) | 16.6 µM (inactive) | 3.45 µM (inactive) |  | 7.24 |  |  | 12.5 µM (inactive) | 3.85 µM (inactive) | 25.2 µM (inactive) |  |  |  | 21.4 µM (inactive) | 17.3 µM (inactive) | 6.68 µM (inactive) | 2.96 µM (inactive) | 18 µM (inactive) | 
7 | CNS(=O)(=O)NNS(=O)(=O)c1ccc(F)cc1 | > 100 µM (inactive) | > 100 µM (inactive) | > 100 µM (inactive) |  | > 100 | > 100 µM (inactive) |  | > 100 µM (inactive) | > 100 µM (inactive) | > 100 µM (inactive) |  | > 100 µM (inactive) |  | > 100 µM (inactive) |  | > 100 µM (inactive) | > 100 µM (inactive) | > 100 µM (inactive) | > 100 µM (inactive)
